Measurements taken from publication PMC2635431 (Journal of pharmaceutical sciences, 2009).

Assays:
[1] = system: human epidermal membrane (HEM); experiment: Passive transport of corticosterone; type: in vitro ADME; details: CS lipoidal pathway permeability vs PBS control (Eq. 3)
[2] = Corticosterone solubility in enhancer-PBS solution relative to PBS; details: enhancer concentration of Protocol I, 37°C
[3] = experimental, from the literature; cited from earlier work
[4] = system: human epidermal membrane (HEM); experiment: Evaluation of direct enhancer treatment time on CS permeability of HEM; type: in vitro ADME; details: direct treatment 1, 4, 20 min; p > 0.05, t-test
[5] = system: human epidermal membrane (HEM); experiment: Enhancer depletion and recovery of HEM barrier; type: in vitro ADME; details: Protocol II, enhancer depletion in PBS

Compound	Enhancement Ratio (Emax) ([1]; Protocol III)	Enhancement Ratio (Emax) ([1]; Protocol II)	effect of treatment time on permeability coefficients of CS [4]	time for HEM permeability to return to the PBS control value [5]	further results
CCCCCCCCCCCCN1CCCC1=O [DoP, 1-Dodecyl-2-pyrrolidinone]	14 ± 6				
COc1ccc(O)c(C(C)(C)C)c1 [BHA, 1,1-Dimethylethyl-4-methoxy phenol]					CS Solubility Ratio (enhancer/PBS solution vs PBS) [2]: 1.16 ± 0.03; log Koct [3]: 3.14 ^b^53
CCCCCCCCCCCO [UD, Undecan-1-ol]		17 ± 2	did not significantly affect		
CCCCC(CC)COC(=O)c1ccccc1O (centres unmarked) [OS, 2-Ethylhexyl 2-hydroxybenzoate]		5.0 ± 3.6	did not significantly affect		
CCCCCCCCN1CCCC1=O [OP, 1-Octyl-2-pyrrolidinone]	16 ± 6			approximately 6 h	
CCCCC(CC)COC(=O)c1ccc(N(C)C)cc1 (centres unmarked) [PADO, 2-Ethylhexyl 4-(dimethylamino) benzoate]	3.8 ± 1.1	4.1 ± 0.7	did not significantly affect		
OCCOc1ccccc1 [PHE, 2-Phenoxy-1-ethanol]				less than 2 h	
CCCCCCCCCCCCCC(=O)OC(C)C [IPM, Propan-2-yl tetradecanoate]	3.3 ± 1.1	2.8 ± 0.2	did not significantly affect		
CCCCCCCCO [OC, 1-Octanol]	18 ± 2			approximately 6 h	
CCCCCCCC/C=C\CCCCCCCCO [OA, (Z)-Octadec-9-en-1-ol]		5.5 ± 1.5	did not significantly affect		
